Assay results taken from article PMC7555312, “Functional Characterization of Temporin-SHe, a New Broad-Spectrum Antibacterial and Leishmanicidal Temporin-SH Paralog from the Sahara Frog (Pelophylax saharicus)” (International Journal of Molecular Sciences, 2020).
Where no end group is shown, it is not given here.

Experiments:
S. cerevisiae = type: cell-based, Saccharomyces cerevisiae
Method: (§3) Antimicrobial activity was assessed with a liquid growth inhibition assay performed according to a previously described protocol [14] using the Clinical and Laboratory Standards Institute (CLSI) guidelines. Briefly, in 96-well microtitration plates, mid-log-phase bacteria diluted to 10^6 CFU/mL in Mueller–Hinton (MH) broth were added to different concentrations of synthetic temporin-SHe (1–200 µM, final concentrations) and incubated at 37 °C for 18–20 h, under shaking (150 rpm). For E. faecalis, L. ivanovii and yeasts/fungi, 10^6 CFU/mL suspensions were prepared in LB broth, brain heart infusion (BHI) medium and Yeast Peptone Dextrose (YPD) medium, respectively, and incubation was performed at 30 °C for yeasts/fungi. […] MIC values represent the average of three independent experiments, each performed in triplicate with negative (no peptide) and positive (formaldehyde 0.7%) controls.

E. coli ML-35p = test: Membrane permeabilization assay (ONPG hydrolysis); type: cell-based, Escherichia coli; settings: increasing peptide concentrations, 2.5 mM ONPG in PBS, 37 °C
Method: The ability of temporin-SHe to permeabilize bacterial cytoplasmic membrane was determined using the Gram-negative strain E. coli ML-35p and the Gram-positive strain S. aureus ST1065, as described. Briefly, after incubation of bacteria (37 °C) in 96-well plates with PBS containing 2.5 mM o-nitrophenyl-β-D-galactopyranoside (ONPG) and different concentrations of temporin-SHe, the production of o-nitrophenol (ONP) resulting from hydrolysis of ONPG by intracytoplasmic β-galactosidase was monitored at 405 nm according to the time (Fluostar Galaxy plate reader, BMG Labtech, Champigny-sur-Marne, France). Wells containing bacteria and ONPG, with no peptide, were used as negative control. Two independent experiments were performed in triplicate. Results are from a representative experiment and were expressed as the mean ± S.D.

E. faecalis ATCC 29212 = type: cell-based, Enterococcus faecalis
Method: as §3

K. pneumoniae ATCC 13883 = type: cell-based, Klebsiella pneumoniae
Method: as §3

E. coli ATCC 35218 = type: cell-based, Escherichia coli
Method: as §3

S. aureus ATCC BAA-44 = tested on: S. aureus ATCC BAA-44
Method: (§1) Antibacterial activity of temporin-SHe was evaluated against Gram-positive bacteria including S. aureus strains (ATCC 25923, ST1065), antibiotic-resistant S. aureus strains (ATCC 43300, ATCC BAA-44), E. faecalis (ATCC 29212), B. megaterium, and L. ivanovii (Li4pVS2), and Gram-negative bacteria including E. coli strains (ATCC 25922, ATCC 35218, ML-35p), S. enterica (serotype Enteritidis), P. aeruginosa (ATCC 27853), A. baumannii (ATCC 19606) and K. pneumoniae (ATCC 13883). Antifungal activity was evaluated against C. albicans (ATCC 90028), C. parapsilosis (ATCC 22019) and S. cerevisiae. ATCC strains were purchased from American-Type Culture Collection (ATCC, Virginia, VA, USA). Antiparasitic activity was determined against promastigotes of several species of Leishmania responsible for visceral, cutaneous and mucocutaneous leishmaniases: L. infantum (strain MHOM/MA/67/ITMAP-263), L. major (strain MHOM/SU/73/5-ASKH), and L. braziliensis (strain MHOM/BR/75/M2904), respectively. Cytotoxicity was assessed against human red blood cells and THP-1 monocytes. Peripheral blood was obtained from healthy adult donors (Établissement Français du Sang, Paris, France). All donors signed informed consent allowing the use of their blood for research purposes.
(§2) Antimicrobial activity was assessed with a liquid growth inhibition assay performed according to a previously described protocol using the Clinical and Laboratory Standards Institute (CLSI) guidelines. Briefly, in 96-well microtitration plates, mid-log-phase bacteria diluted to 10^6 CFU/mL in Mueller–Hinton (MH) broth were added to different concentrations of synthetic temporin-SHe (1–200 µM, final concentrations) and incubated at 37 °C for 18–20 h, under shaking (150 rpm). For E. faecalis, L. ivanovii and yeasts/fungi, 10^6 CFU/mL suspensions were prepared in LB broth, brain heart infusion (BHI) medium and Yeast Peptone Dextrose (YPD) medium, respectively, and incubation was performed at 30 °C for yeasts/fungi. […] MIC values represent the average of three independent experiments, each performed in triplicate with negative (no peptide) and positive (formaldehyde 0.7%) controls.

L. ivanovii (Li4pVS2) = settings: liquid growth inhibition (CLSI), 10^6 CFU/mL in brain heart infusion (BHI) medium, 37 °C, 18–20 h, OD 630 nm; mean of three independent experiments in triplicate
Method: as §1, §2

[1] = tested on: S. enterica (serotype Enteritidis)
Method: as §1, §2

[2] = tested on: all tested Gram-positive bacteria; settings: range over all tested Gram-positive bacteria
Method: as §1, §2

human THP-1 monocytes = test: Cytotoxicity, MTT assay; settings: THP-1, 72 h, 37 °C, calculated mean from dose–response curves
Method: Hemolytic activity of temporin-SHe was determined against human red blood cells (RBCs), as described in [13]. After incubating the peptide (1–200 µM, final concentrations) with RBCs (2 × 10^7 cells) in 100 µL PBS for 1 h at 37 °C, centrifugation was completed (12,000× g, 15 s) and the absorbance of the supernatant was measured at 450 nm. RBCs suspended in PBS or 0.1% (v/v) Triton X-100 yielded an absorbance associated with 0% and 100% hemolysis, respectively. The percentage of hemolysis was calculated as follow: Hemolysis (%) = [A450 (RBCs with peptide)–A450 (RBCs in PBS)]/[A450 (RBCs with Triton X-100)–A450 (RBCs in PBS)]. Cytotoxicity of temporin-SHe was also assessed on human leukemia monocyte cell line THP-1. Briefly, monocytes (6.25 × 10^5 cells/mL) were incubated with different peptide concentrations (3–50 µM, final concentrations) for 72 h at 37 °C, then cell viability was determined by the MTT assay according to a previously described protocol. Results were expressed as the mean of two independent experiments performed in triplicate.

C. albicans ATCC 90028 = type: cell-based, Candida albicans
Method: as §3

FLPALAGIAGLLGKIF-NH2 [Temporin-SHe]
MIC (S. cerevisiae): 12.5 µM
cytoplasmic membrane permeabilization (ONP production, A405) (E. coli ML-35p): time- and concentration-dependent manner
MIC (E. faecalis ATCC 29212): 12.5 µM
MIC (K. pneumoniae ATCC 13883): 100 µM
MIC (E. coli ATCC 35218): 50 µM
MIC (S. aureus ATCC BAA-44): 3.12 µM
MIC (L. ivanovii (Li4pVS2)): 5 µM
MIC [1]: 100 µM
MIC range [2]: 1.56 to 12.5 µM
LC50 (lethal concentration 50) (human THP-1 monocytes): 11.4 µM
MIC (C. albicans ATCC 90028): >100 µM
